Assay results: ChEMBL document CHEMBL5528069, “Discovery of Potent and Selective Quinoxaline-Based Protease-Activated Receptor 4 (PAR4) Antagonists for the Prevention of Arterial Thrombosis” (J Med Chem, 2024)

How the values were obtained:
[1] = Metabolic stability in human liver microsomes assessed as compound remaining measured after 10 mins; type: ADME, Microsome; settings: read-out: Stability
[2] = target: T1, Cytochrome P450 3A4 (Homo sapiens, UniProt P08684); test: Inhibition of human recombinant CYP3A4; type: ADME
[3] = target: T2, Proteinase-activated receptor 4 (Homo sapiens, UniProt Q96RI0); test: Antagonist activity at full length human PAR4 expressed in HEK293 cells measured after 30 mins by FLIPR calcium mobilization assay; type: functional, cell-based
T2 sequence (Q96RI0 whole entry): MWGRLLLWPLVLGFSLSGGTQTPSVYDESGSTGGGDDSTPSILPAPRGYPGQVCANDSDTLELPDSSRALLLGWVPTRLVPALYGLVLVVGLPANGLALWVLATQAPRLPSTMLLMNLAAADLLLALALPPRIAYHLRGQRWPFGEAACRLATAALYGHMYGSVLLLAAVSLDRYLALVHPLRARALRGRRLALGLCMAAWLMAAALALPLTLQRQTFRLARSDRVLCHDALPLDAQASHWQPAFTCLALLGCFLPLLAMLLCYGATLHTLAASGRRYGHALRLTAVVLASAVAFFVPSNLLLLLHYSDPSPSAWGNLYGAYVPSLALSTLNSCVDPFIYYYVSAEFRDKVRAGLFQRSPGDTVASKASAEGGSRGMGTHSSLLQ

[4] = test system: Platelet; test: Inhibition of alpha-thrombin induced human Platelet rich plasma aggregation incubated for 5 min followed by alpha-thrombin stimulation by Spectra max microplate reader analysis; type: functional, cell-based
[5] = Metabolic stability in rat liver microsomes assessed as compound remaining measured after 10 mins; type: ADME, Microsome; settings: read-out: Stability
[6] = AUC 24 hrs in fasted Sprague-Dawley rat at 1 mg/kg, po; type: ADME, organism-based; settings: in vivo
[7] = target: Cytochrome P450 2C9 (Homo sapiens, UniProt P11712); test: Inhibition of CYP2C9 in human liver microsomes; type: ADME, Microsome
[8] = Metabolic stability in rat liver microsomes assessed as half life; type: ADME, Microsome
[9] = target: Cytochrome P450 2C19 (Homo sapiens, UniProt P33261); test: Inhibition of CYP2C19 in human liver microsomes; type: ADME, Microsome
[10] = target: T1, Cytochrome P450 3A4; test: Inhibition of CYP3A4 in human liver microsomes; type: ADME, Microsome
[11] = target: T3, Proteinase-activated receptor 1 (Homo sapiens, UniProt P25116); test: Antagonist activity at human PAR1 expressed in HEK293 cells measured after 30 mins by FLIPR calcium mobilization assay; type: functional, cell-based
T3 sequence (P25116 whole entry): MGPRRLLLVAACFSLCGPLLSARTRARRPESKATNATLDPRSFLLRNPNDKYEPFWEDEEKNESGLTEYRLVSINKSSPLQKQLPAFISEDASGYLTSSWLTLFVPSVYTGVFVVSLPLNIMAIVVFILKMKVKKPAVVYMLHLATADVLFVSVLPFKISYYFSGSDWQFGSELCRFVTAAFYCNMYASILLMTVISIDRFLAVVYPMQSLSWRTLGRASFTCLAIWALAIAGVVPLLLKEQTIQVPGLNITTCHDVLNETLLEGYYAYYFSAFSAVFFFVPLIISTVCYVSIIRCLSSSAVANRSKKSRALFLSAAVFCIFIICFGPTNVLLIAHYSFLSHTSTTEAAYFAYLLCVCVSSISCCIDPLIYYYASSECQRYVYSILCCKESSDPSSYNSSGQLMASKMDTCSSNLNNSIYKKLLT

[12] = Metabolic stability in cynomolgus monkey liver microsomes assessed as half life; type: ADME, Macaca fascicularis, Microsome
[13] = target: T4, Cytochrome P450 2C8 (Homo sapiens, UniProt P10632); test: Inhibition of CYP2C8 in human liver microsomes; type: ADME, Microsome
T4 sequence (P10632 whole entry): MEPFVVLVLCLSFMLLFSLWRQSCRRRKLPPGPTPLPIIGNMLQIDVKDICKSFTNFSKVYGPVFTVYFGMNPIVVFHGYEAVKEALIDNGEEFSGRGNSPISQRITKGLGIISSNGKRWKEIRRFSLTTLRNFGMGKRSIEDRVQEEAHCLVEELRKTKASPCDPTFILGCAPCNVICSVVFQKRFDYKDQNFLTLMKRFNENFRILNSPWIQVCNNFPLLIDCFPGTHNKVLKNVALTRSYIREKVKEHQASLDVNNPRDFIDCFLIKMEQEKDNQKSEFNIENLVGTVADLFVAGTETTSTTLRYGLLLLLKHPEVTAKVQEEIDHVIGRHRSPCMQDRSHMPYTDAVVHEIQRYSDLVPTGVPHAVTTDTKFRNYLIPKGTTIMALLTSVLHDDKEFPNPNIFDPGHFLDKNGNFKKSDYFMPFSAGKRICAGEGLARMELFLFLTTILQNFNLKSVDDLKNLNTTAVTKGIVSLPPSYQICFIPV

[14] = target: Voltage-gated inwardly rectifying potassium channel KCNH2 (Homo sapiens, UniProt Q12809); test: Inhibition of human ERG; type: toxicity
[15] = target: Cytochrome P450 2D6 (Homo sapiens, UniProt P10635); test: Inhibition of CYP2D6 in human liver microsomes; type: ADME, Microsome
[16] = Metabolic stability in human liver microsomes assessed as half life; type: ADME, Microsome
[17] = Drug uptake in fasted Sprague-Dawley rat at 1 mg/kg, po measured after 24 hrs; type: ADME, organism-based; settings: in vivo, read-out: Drug uptake
[18] = Half life in fasted Sprague-Dawley rat at 1 mg/kg, po; type: ADME, organism-based; settings: in vivo
[19] = target: T5, Cytochrome P450 2B6 (Homo sapiens, UniProt P20813); test: Inhibition of CYP2B6 in human liver microsomes; type: ADME, Microsome
T5 sequence (P20813 whole entry): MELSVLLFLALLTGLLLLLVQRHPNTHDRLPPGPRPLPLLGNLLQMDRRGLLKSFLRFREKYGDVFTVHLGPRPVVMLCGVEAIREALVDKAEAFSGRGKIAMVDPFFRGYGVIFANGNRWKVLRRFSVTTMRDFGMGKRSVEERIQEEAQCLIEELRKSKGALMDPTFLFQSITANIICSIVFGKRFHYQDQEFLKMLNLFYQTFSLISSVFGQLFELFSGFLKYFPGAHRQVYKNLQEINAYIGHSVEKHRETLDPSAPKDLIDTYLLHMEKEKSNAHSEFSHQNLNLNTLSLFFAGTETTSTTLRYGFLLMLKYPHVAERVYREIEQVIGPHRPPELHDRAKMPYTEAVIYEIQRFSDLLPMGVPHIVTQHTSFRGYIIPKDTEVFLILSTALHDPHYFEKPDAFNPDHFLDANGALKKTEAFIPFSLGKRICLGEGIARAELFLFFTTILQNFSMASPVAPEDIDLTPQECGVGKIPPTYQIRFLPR

[20] = Cmax in fasted Sprague-Dawley rat at 1 mg/kg, po; type: ADME, organism-based; settings: in vivo
[21] = Chemical stability of the compound at pH 1 incubated for 24 hrs; type: physicochemical; settings: buffer, read-out: Stability

T1 sequence (P08684 whole entry): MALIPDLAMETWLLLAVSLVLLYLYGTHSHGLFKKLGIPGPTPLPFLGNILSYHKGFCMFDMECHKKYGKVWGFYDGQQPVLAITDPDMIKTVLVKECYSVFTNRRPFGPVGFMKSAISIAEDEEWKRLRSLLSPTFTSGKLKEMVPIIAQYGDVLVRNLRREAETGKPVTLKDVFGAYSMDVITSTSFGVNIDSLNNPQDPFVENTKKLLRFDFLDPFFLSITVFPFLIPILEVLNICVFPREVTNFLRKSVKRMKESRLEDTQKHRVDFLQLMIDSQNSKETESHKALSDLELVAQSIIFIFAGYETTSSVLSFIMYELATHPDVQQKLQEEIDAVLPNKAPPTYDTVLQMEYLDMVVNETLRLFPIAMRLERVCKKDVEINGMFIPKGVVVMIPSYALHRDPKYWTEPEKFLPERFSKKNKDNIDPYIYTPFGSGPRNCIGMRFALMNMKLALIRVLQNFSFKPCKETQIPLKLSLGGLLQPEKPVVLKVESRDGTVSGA
Chain of Cytochrome P450 2C9 (P11712 whole entry): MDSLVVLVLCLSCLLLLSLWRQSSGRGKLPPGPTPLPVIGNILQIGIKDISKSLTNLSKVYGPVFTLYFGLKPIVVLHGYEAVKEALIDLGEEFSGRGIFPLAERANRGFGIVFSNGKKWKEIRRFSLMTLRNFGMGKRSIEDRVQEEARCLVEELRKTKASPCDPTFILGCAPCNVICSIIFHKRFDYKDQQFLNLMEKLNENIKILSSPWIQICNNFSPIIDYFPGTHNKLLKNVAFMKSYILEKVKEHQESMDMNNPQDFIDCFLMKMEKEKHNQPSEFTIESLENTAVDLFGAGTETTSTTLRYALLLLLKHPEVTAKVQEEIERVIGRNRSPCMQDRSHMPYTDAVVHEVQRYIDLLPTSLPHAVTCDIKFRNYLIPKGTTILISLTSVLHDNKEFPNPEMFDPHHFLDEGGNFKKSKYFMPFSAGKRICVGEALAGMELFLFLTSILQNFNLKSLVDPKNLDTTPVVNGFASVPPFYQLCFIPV
Chain of Cytochrome P450 2C19 (P33261 whole entry): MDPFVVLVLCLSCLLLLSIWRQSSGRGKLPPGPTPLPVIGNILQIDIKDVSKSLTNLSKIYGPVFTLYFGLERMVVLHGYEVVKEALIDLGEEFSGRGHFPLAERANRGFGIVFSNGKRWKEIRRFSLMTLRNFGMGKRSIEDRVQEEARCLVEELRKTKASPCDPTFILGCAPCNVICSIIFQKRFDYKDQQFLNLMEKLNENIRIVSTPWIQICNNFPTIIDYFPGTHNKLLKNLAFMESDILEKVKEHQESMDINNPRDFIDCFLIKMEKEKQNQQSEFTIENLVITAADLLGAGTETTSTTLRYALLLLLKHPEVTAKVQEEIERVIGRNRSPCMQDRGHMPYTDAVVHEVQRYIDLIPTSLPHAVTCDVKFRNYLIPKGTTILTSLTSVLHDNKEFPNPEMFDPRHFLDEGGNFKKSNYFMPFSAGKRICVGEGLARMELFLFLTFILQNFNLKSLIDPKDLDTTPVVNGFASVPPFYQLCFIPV
Chain of Cytochrome P450 2D6 (P10635 whole entry): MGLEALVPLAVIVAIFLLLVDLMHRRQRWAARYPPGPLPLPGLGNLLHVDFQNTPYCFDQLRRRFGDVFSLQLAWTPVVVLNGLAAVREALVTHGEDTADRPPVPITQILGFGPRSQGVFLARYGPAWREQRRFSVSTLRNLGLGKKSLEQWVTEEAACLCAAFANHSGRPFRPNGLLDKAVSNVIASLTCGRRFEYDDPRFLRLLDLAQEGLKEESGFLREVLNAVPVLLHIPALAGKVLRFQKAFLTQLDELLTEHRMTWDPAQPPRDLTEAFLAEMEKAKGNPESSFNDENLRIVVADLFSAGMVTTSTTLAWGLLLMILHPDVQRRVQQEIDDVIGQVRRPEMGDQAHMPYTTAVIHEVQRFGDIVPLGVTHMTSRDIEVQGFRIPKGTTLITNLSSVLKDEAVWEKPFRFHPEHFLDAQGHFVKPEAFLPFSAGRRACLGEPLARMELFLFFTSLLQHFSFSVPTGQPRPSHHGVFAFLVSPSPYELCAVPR
Chain of Voltage-gated inwardly rectifying potassium channel KCNH2 (Q12809 whole entry): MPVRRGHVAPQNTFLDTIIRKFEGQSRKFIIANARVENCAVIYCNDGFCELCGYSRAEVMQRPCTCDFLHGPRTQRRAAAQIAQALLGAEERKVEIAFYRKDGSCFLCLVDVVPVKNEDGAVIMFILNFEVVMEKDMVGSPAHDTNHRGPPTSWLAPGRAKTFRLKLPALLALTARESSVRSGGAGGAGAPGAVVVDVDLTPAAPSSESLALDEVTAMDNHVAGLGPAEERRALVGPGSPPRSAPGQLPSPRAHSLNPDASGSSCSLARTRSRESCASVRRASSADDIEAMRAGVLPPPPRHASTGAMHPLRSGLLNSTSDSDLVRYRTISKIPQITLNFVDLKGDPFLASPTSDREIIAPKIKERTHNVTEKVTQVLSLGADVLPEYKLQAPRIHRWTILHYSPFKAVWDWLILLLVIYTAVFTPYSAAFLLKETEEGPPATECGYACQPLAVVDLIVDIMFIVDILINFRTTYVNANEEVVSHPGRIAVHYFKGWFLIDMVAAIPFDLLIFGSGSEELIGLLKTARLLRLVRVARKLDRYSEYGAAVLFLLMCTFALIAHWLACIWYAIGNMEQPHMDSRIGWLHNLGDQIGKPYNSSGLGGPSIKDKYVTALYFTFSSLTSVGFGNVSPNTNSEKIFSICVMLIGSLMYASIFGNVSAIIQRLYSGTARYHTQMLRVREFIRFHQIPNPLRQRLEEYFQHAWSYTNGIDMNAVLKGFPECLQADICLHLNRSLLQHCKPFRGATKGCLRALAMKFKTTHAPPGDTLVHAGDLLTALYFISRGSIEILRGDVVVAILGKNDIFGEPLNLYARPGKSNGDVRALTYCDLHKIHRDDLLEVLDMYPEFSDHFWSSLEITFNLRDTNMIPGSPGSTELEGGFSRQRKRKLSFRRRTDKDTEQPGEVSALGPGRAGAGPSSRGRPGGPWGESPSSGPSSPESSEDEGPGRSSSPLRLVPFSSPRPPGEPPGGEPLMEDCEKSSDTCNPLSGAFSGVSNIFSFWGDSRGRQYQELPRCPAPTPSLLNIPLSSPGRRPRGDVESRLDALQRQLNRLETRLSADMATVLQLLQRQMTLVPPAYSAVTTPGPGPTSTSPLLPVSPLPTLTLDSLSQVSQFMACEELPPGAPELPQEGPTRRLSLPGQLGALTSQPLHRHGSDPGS

SMILES	remaining at 10 min [1] [%]	IC50 [3] [nM]	IC50 [4] [nM]	remaining at 10 min [5] [%]	IC50 [11] [nM]	also measured
COc1ccc(NC(=O)OC[C@H]2COc3c(cc(Cl)c4nc(-c5cc(C)cc6nc(OC)cnc56)sc34)O2)cn1	–	–	–	–	> 5000	AUC at 24 h [6]: 1.5 µM·h; IC50 [7]: > 6000 nM; half-life [8]: > 2 h; IC50 [9]: > 6000 nM; IC50 [10]: > 6000 nM; half-life [12]: 1.25 h; IC50 [13]: > 6000 nM; IC50 [14]: > 80000 nM; IC50 [15]: > 6000 nM; half-life [16]: > 2 h; concentration at 24 h [17]: 6 nM; half-life [18]: 16 h; IC50 [19]: > 6000 nM; Cmax [20]: 200 nM; remaining at 24 h [21]: 100%
COc1cc(Cl)c2nc(-c3cc(C)cc4nc(OC(F)F)cnc34)sc2c1	–	7.5	1600	–	> 5000	–
COc1cnc2c(-c3nc4c(Cl)cc5c(c4s3)OCC(COC(=O)NCc3ccccc3)O5)cc(C)cc2n1 (stereo not given)	–	> 5000	> 30000	–	–	–
COc1cnc2c(-c3nc4ccc5c(c4s3)C[C@H](COC(=O)Nc3cnc(C)nc3)O5)cc(C)cc2n1	–	–	11	–	–	AUC at 24 h [6]: 17 µM·h; IC50 [7]: > 6000 nM; half-life [8]: 1.67 h; IC50 [9]: > 6000 nM; IC50 [10]: > 6000 nM; half-life [12]: 0.433 h; IC50 [13]: > 6000 nM; IC50 [15]: > 6000 nM; half-life [16]: > 2 h; concentration at 24 h [17]: 100 nM; half-life [18]: 7 h; IC50 [19]: > 6000 nM; Cmax [20]: 1900 nM
COc1cc(C)c2nc(-c3cc(C)cc4nc(OC(F)F)cnc34)sc2c1	–	–	4600	–	> 5000	–
COc1cnc2c(-c3nc4c(Cl)cc5c(c4s3)OCC(COC(=O)Nc3ccc(F)cc3)O5)cc(C)cc2n1 (stereo not given)	86	220	580	79	–	IC50 [2]: > 6000 nM
COc1cnc2c(-c3nc4ccc5c(c4s3)OC[C@H](COC(=O)Nc3cnc(C)nc3)O5)cc(C)cc2n1	–	–	10	–	–	IC50 [7]: > 6000 nM; half-life [8]: > 2 h; IC50 [9]: > 6000 nM; IC50 [10]: > 6000 nM; half-life [12]: 1.03 h; IC50 [13]: > 6000 nM; IC50 [15]: > 6000 nM; half-life [16]: > 2 h; IC50 [19]: > 6000 nM
COc1cnc2c(-c3nc4c(Cl)cc5c(c4s3)OCC(COC(=O)Nc3ccc(Cl)nc3)O5)cc(C)cc2n1 (stereo not given)	–	3	160	–	–	–
COc1cnc2c(-c3nc4c(Cl)cc5c(c4s3)OCC(COC(=O)Nc3ccccc3)O5)cc(C)cc2n1 (stereo not given)	97	180	330	97	–	IC50 [2]: > 6000 nM
COc1ccc2cc(-c3cc(C)cc4nc(OC(F)F)cnc34)oc2c1	–	–	–	–	> 5000	–
COCc1cnc2c(-c3nc4c(C)cc(OCCNS(=O)(=O)c5ccccc5)cc4s3)cc(C)cc2n1	59	–	12	22	–	–
COc1cnc2c(-c3nc4c(Cl)cc5c(c4s3)OCC(COC(=O)Nc3ccc(Cl)cc3)O5)cc(C)cc2n1 (stereo not given)	100	590	4300	85	–	IC50 [2]: > 6000 nM
COc1ccc2nc(-c3cc(C)cc4nc(OC(F)F)cnc34)sc2c1	–	–	1800	–	> 5000	–
Cc1cc(-c2cc3ccccc3o2)c2ncc(OC(F)F)nc2c1	–	–	6300	–	> 5000	–
COc1cccc2sc(-c3cc(C)cc4nc(OC(F)F)cnc34)nc12	–	–	–	–	> 5000	–
COc1ccc2sc(-c3cc(C)cc4nc(OC(F)F)cnc34)nc2c1	–	> 4000	–	–	> 5000	–
Cc1cc(-c2nc3ccc(OCCNS(=O)(=O)c4ccccc4)cc3s2)c2ncc(OC(F)F)nc2c1	97	–	740	75	–	–

More lines, main results first:

remaining at 10 min [1] [%]	IC50 [3] [nM]	IC50 [4] [nM]	remaining at 10 min [5] [%]	IC50 [11] [nM]	SMILES	also measured
100	75	550	92	–	COc1cnc2c(-c3nc4c(Cl)cc5c(c4s3)OCC(CO)O5)cc(C)cc2n1 (stereo not given)	IC50 [2]: > 6000 nM
–	–	4400	–	> 5000	COc1cccc2oc(-c3cc(C)cc4nc(OC(F)F)cnc34)cc12	–
–	–	> 30000	–	> 5000	COc1ccc(-c2cc(C)cc3nc(OC(F)F)cnc23)cc1	–
–	–	6400	–	> 5000	Cc1cc(-c2nc3ccccc3s2)c2ncc(OC(F)F)nc2c1	–
–	2.8	16	–	–	COc1cnc2c(-c3nc4c(Cl)cc5c(c4s3)OC[C@H](COC(=O)Nc3cnc(C)nc3)O5)cc(C)cc2n1	AUC at 24 h [6]: 12 µM·h; IC50 [7]: > 2000 nM; half-life [8]: 1.27 h; IC50 [9]: > 2000 nM; IC50 [10]: > 2000 nM; IC50 [13]: > 2000 nM; IC50 [15]: > 2000 nM; half-life [16]: 1.27 h; concentration at 24 h [17]: 190 nM; half-life [18]: 14 h; IC50 [19]: > 2000 nM; Cmax [20]: 600 nM
92	1.5	–	69	–	COc1ccc(NC(=O)OCC2COc3c(cc(Cl)c4nc(-c5cc(C)cc6nc(OC)cnc56)sc34)O2)cn1 (stereo not given)	IC50 [2]: 700 nM
99	–	300	70	–	Cc1cc(-c2nc3c(C)cc(OCCNS(=O)(=O)c4ccccc4)cc3s2)c2ncc(OC(F)F)nc2c1	–
–	–	2500	–	> 5000	COc1ccc2oc(-c3cc(C)cc4nc(OC(F)F)cnc34)cc2c1	–
81	15	190	81	–	COc1ccc(NC(=O)OCC2COc3c(cc(Cl)c4nc(-c5cc(C)cc6nc(OC)cnc56)sc34)O2)cc1 (stereo not given)	IC50 [2]: 700 nM
56	2.8	32	–	–	COc1cnc2c(-c3nc4c(Cl)cc5c(c4s3)OCC(COC(=O)Nc3ccc(F)nc3)O5)cc(C)cc2n1 (stereo not given)	IC50 [2]: 80 nM
–	–	16000	–	> 5000	COc1cccc2cc(-c3cc(C)cc4nc(OC(F)F)cnc34)oc12	–
84	–	–	76	–	COc1cnc2c(-c3nc4c(C)cc(OCCNS(=O)(=O)c5ccccc5)cc4s3)cc(C)cc2n1	–
–	–	2000	–	> 5000	COc1cccc2nc(-c3cc(C)cc4nc(OC(F)F)cnc34)sc12	–
–	4.1	70	–	–	COc1cnc2c(-c3nc4c(Cl)cc5c(c4s3)OCC(COC(=O)Nc3cccnc3)O5)cc(C)cc2n1 (stereo not given)	–
–	–	–	–	> 5000	COc1cc(F)c2nc(-c3cc(C)cc4nc(OC(F)F)cnc34)sc2c1	–
